What was measured:
[1] = Water-solubility of clofibrate alone or combined with β-CyD-G2-COONa or β-CyD (Example 5); format: physicochemical; details: in water; with β-CyD-G2-COONa or β-CyD 1:2 (molar ratio), lyophilized powder; as Example 1; read-out: solubilities of clofibrate
Method: (§1) The antineoplastic agent 6-O-(N-chloroacetylcarbamoyl)fumagillol (100 mg) was dissolved in ethanol (4 ml). […] The aqueous solution was added to the ethanol solution and mixed with it with stirring. The resulting solution was lyophilized in vacuo to give powder. Water (1 ml) was added to the powder (100 mg) to obtain a homogeneous aqueous solution, i.e., a composition of the present invention.
(§2) On the other hand, the antineoplastic agent alone was added to water, and the mixture was vigorously shaken at 25 °C for 4 hours and filtered through a membrane filter of 0.22 µm.
(§3) The antineoplastic agent in the above homogeneous aqueous solution and filtrate was determined by high performance liquid chromatography (HPLC). As a result, the solubilities in Table 1 were obtained.
Likewise, lyophilized powder was obtained from clofibrate and β-cyclodextrin (β-CyD) (clofibrate : β-CyD = 1:2 (molar ratio)). […]

[2] = Water-solubility of phenytoin alone or combined with β-CyD-G2-COONa or β-CyD (Example 9)
Method: (§4) Sodium6-O-cyclomaltoheptaosyl-(6→1)-O-α-D-glucosyl-(4→1)-O-α-D-glucuronate (β-CyD-G2-COONa)(75 mg) was dissolved in water (5 ml).

[3] = Water-solubility of flufenamic acid alone or combined with β-CyD-G2-COONa or β-CyD (Example 7); format: physicochemical; details: flufenamic acid about 6 mg; as Example 6 (cyclodextrin 75 mg in water 5 ml, 25°C, 8 hours)
Method: as §4

[4] = water, 8 h
Excerpt: The results are in Table 10. Table 10

[5] = Water-solubility of indomethacin alone or combined with β-CyD-G2-COONa or β-CyD (Example 11)
Excerpt: The results are in Table 11. Table 11

[6] = Water-solubility of acetohexamide alone or combined with β-CyD-G2-COONa or β-CyD (Example 13); format: physicochemical; details: with β-CyD-G2-COONa or β-CyD 1:1 (molar ratio), as Example 12, powder 100 mg + water 1 ml; alone: 25 °C, 6 hours; ultraviolet spectrophotometer; read-out: solubilities of acetohexamide
Method: Separately, powder was obtained by the same operation except using β-CyD instead of the above β-CyD-G2-COONa. Water (1 ml) was added to each powder (100 mg) thus obtained to dissolve it. On the other hand, acetohexamide alone was added to water, and the mixture was vigorously shaken at 25 °C for 6 hours and filtered through a membrane filter of 0.22 µm. The acetohexamide in the above filtrate was determined with an ultraviolet spectrophotometer (Shimadzu Corp., UV-240).

[7] = Water-solubility of the antifungal agent alone or combined with β-CyD-G2-COONa or β-CyD (Example 4); format: physicochemical; details: triazolone antifungal agent in water; with β-CyD-G2-COONa or β-CyD 1:2 (molar ratio), lyophilized powder; as Example 1; read-out: solubilities of the antifungal agent
Method: as §1, §2, §3
Likewise, lyophilized powder was obtained from the antifungal agent and β-cyclodextrin (β-CyD)(the antifungal agent : β-CyD = 1:2 (molar ratio)). […]

[8] = Water-solubility of testosterone alone or combined with β-CyD-CH2CH(OH)-COONa or β-CyD (Example 15); format: physicochemical; details: testosterone about 4 mg, β-CyD-CH2CH(OH)-COONa or β-CyD 75 mg in water 5 ml, shaken at 25°C for 8 hours; ultraviolet spectrophotometer; read-out: solubilities of testosterone
Method: The same operations were carried out using β-CyD instead of β-CyD-CH2CH(OH)-COONa or using testosterone alone. The concentration of testosterone dissolved in the resulting filtrate was determined with an ultraviolet spectrophotometer (Shimadzu Corp., UV-240).

[9] = Water-solubility of testosterone alone or combined with β-CyD-G2-COONa or β-CyD (Example 8)
Method: as §4

[10] = Water-solubility of testosterone alone or combined with α-CyD-G2-COONa or α-CyD (Example 14); format: physicochemical; details: testosterone about 4 mg, α-CyD-G2-COONa or α-CyD 75 mg in water 5 ml, shaken at 25°C for 8 hours; ultraviolet spectrophotometer; read-out: solubilities of testosterone
Method: The same operations were carried out using α-cyclodextrin (α-CyD) instead of α-CyD-G2-COONa or using testosterone alone. The concentration of testosterone dissolved in the resulting filtrate was determined with an ultraviolet spectrophotometer (Shimadzu Corp., UV-240).

[11] = Water-solubility of griseofulvin alone or combined with β-CyD-G2-COONa or β-CyD (Example 12, milling, spectrophotometry); format: physicochemical; details: with β-CyD-G2-COONa or β-CyD 1:1 (molar ratio), shaken in tumbler pulverizer with a small amount of water, lyophilized, powder 100 mg + water 1 ml, alone: 25°C, 6 hours, read-out: solubilities of griseofulvin
Method: Water (1 ml) was added to each powder (100 mg) thus obtained to obtain an aqueous solution thereof. On the other hand, griseofulvin alone was added to water, and the mixture was vigorously shaken at 25°C for 6 hours and filtered through a membrane filter of 0.22 µm.
The griseofulvin in the above filtrate was determined by spectrophotometry (Shimadzu Corp., UV-240 spectrophotometer).

In the case of `CCOC(=O)C(C)(C)Oc1ccc(Cl)cc1` [Clofibrate agent alone, clofibrate], the solubility [1] is reported as 82 µg/mL.
In the case of `O=C1NC(=O)C(c2ccccc2)(c2ccccc2)N1` [Phenytoin alone, phenytoin], the solubility at 8 h [2] is reported as 27 µg/mL.
With `O=C(O)c1ccccc1Nc1cccc(C(F)(F)F)c1` [Flufenamic acid alone, flufenamic acid] the “solubilities of flufenamic acid” value [3] was 0.074 mg/mL.
For vitamin K2 [Vitamin K2 alone], the “solubilities of vitamin K2” value [4] was 0.0005 µg/mL.
`COc1ccc2c(c1)c(CC(=O)O)c(C)n2C(=O)c1ccc(Cl)cc1` [Indomethacin alone, indomethacin] showed a solubility at 8 h [5] of 23 µg/mL.
Compound `CC(=O)c1ccc(S(=O)(=O)NC(=O)NC2CCCCC2)cc1` [Acetohexamide alone, acetohexamide] has a solubility [6] of 28.1 µg/mL.
For `C[C@@H](n1ncn(-c2ccc(OCC(F)(F)C(F)F)cc2)c1=O)[C@](O)(Cn1cncn1)c1ccc(F)cc1F` [Antifungal agent alone, 2-[(1R,2R)-2-(2,4-difluorophenyl)-2-hydroxy-1-methyl-3-(1H-1,2,4-triazol-1-yl)propyl]-4-[4-(2,2,3,3-tetrafluoropropoxy)phenyl]-3-(2H,4H)-1,2,4-triazolone], the solubility [7] was 5 µg/mL.
For `C[C@]12CC[C@H]3[C@@H](CCC4=CC(=O)CC[C@@]43C)[C@@H]1CC[C@@H]2O` [Testosterone alone, testosterone], the solubility at 8 h [8] was 29 µg/mL, the solubility at 8 h [9] was 29 µg/mL and the solubility at 8 h [10] was 29 µg/mL.
For `COC1=CC(=O)C[C@@H](C)[C@]12Oc1c(Cl)c(OC)cc(OC)c1C2=O` [Griseofulvin alone, griseofulvin], the solubility [11] was 23 µg/mL.

— patent EP0657176B1, “Composition containing a water-insoluble or slightly water-soluble compound with enhanced water-solubility” (priority 1993, dated 1995)
